In ChEMBL document CHEMBL5608212, “N-acylbenzimidazoles as selective Acylators of the catalytic cystein of the coronavirus 3CL protease” (Eur J Med Chem, 2024):
“And” between values parts separate entries of the source, which are not always exact repeats. Equal entries are not always repeated.

Legend:
[1] = target: Replicase polyprotein 1ab (Severe acute respiratory syndrome coronavirus 2, UniProt P0DTD1); test: Inhibition of SARS-CoV-2 3CLpro using Dabcyl-KTSAVLQSGFRKM-Glu(Edans) as substrate preincubated for 1 hrs in presence of 2 mM GSH followed by substrate addition and measured after 30 mins by FRET assay
[2] = Inhibition of human cathepsin 1 using QXL520/HiLyteFlour 488 as substrate preincubated for 60 mins and measured after 30 mins by fluorescence based assay
[3] = Inhibition of C-terminal 6-His tagged recombinant SARS-CoV 3CLpro (Ser1 to Gln306 residues) extracted from Escherichia coli using Dabcyl-KTSAVLQSGFRKM-Glu(Edans) as substrate preincubated 1 hr in presence of 2 mM GSH followed by substrate addition and measured after 30 mins by FRET assay; parameters: species or system Severe acute respiratory syndrome-related coronavirus
[4] = Inhibition of MERS-CoV 3CLpro using Dabcyl-KTSAVLQSGFRKM-Glu(Edans) as substrate preincubated 1 hr in presence of 2 mM GSH followed by substrate addition and measured after 30 mins by FRET assay; parameters: species or system Middle East respiratory syndrome-related coronavirus
[5] = target: Replicase polyprotein 1ab (Human coronavirus 229E, UniProt P0C6X1); test: Inhibition of hCoV-229E 3CLpro using Dabcyl-KTSAVLQSGFRKM-Glu(Edans) as substrate preincubated 1 hr in presence of 2 mM GSH followed by substrate addition and measured after 30 mins by FRET assay
Replicase polyprotein 1ab (Human coronavirus 229E, UniProt P0C6X1), sequence (P0C6X1 2966-3267 limits assumed): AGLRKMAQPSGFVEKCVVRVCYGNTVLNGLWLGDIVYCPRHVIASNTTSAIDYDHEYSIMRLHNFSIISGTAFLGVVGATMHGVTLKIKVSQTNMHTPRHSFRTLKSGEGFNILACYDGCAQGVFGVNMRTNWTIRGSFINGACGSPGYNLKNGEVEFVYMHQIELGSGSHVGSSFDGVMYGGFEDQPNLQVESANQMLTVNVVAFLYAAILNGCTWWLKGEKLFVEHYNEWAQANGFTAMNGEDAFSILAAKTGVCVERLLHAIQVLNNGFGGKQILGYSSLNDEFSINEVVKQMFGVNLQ

Human coronavirus 229E = test: Antiviral activity against HCoV-229E expressing renilla luciferase reporter gene infected in human Huh-7 cells pre-infected […] for 1 hr followed by compound addition and measured after 6 hrs by luciferase based assay; assay type: functional, organism-based
[6] = target: Replicase polyprotein 1ab (Severe acute respiratory syndrome coronavirus 2) (UniProt P0DTD1); test: Inhibition of SARS-CoV-2 3CLpro using Dabcyl-KTSAVLQSGFRKM-Glu(Edans) as substrate at 100 uM preincubated for 1 hrs in presence of 2 mM GSH followed by substrate addition and measured after 30 mins by FRET assay relative to control; settings: time 1.5 hrs
[7] = target: T1, Calpain-1 catalytic subunit (Homo sapiens, UniProt P07384); test: Inhibition of human calpain 1 using (DABCYL)-TPLKSPPPSPR-(EDANS) as substrate incubated for 30 mins in presence of calcium ions and GSH and measured after 30 mins by fluorescence based assay
T1 sequence (P07384 whole entry): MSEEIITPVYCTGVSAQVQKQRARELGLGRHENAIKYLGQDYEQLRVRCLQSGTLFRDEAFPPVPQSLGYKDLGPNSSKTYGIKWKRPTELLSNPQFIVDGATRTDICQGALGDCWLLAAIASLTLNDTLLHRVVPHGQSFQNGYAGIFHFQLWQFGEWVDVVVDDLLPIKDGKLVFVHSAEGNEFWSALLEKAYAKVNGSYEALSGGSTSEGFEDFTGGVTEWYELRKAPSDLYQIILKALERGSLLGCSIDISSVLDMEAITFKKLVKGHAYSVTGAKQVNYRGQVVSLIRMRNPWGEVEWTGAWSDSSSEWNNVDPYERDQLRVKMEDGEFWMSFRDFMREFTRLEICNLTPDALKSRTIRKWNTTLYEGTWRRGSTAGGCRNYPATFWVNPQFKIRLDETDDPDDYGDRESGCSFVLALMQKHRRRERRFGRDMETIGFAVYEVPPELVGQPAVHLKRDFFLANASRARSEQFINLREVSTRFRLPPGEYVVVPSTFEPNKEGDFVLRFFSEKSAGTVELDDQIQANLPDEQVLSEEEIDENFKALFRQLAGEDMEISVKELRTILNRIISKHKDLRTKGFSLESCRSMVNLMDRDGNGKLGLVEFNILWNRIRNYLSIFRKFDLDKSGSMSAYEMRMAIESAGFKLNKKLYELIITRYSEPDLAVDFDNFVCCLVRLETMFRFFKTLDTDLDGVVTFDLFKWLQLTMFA

[8] = target: Replicase polyprotein 1ab (Severe acute respiratory syndrome coronavirus 2) (UniProt P0DTD1); test: Binding affinity to SARS-CoV-2 3CLpro assessed as change in melting temperature at 40 uM measured after 30 mins by SYPRO Orange staining based thermal shift assay

| SMILES | IC50 ([1]; read-out: IC50) | pIC50 [1] | further results |
| --- | --- | --- | --- |
| CSc1nc2ccccc2n1C(=O)c1ccc(F)cc1 | 3800 nM | – | – |
| C=CCSc1nc2ccccc2n1C(=O)c1ccc(C)cc1 | 5440 nM | – | – |
| Cc1ccc(C(=O)n2cnc3ccccc32)cc1 | 6700 nM and 6660 nM | – | – |
| COc1ccc(C(=O)n2c(SC)nc3ccccc32)cc1 | 3000 nM | – | – |
| CSc1nc2ccc(F)cc2n1C(=O)c1ccc(C)c(F)c1 | 260 nM | – | – |
| Cc1ccc(C(=O)n2c(S)nc3ccccc32)cc1 | > 100000 nM | < 4 | – |
| CSc1nc2ccccc2n1C(=O)c1cccc(C)c1 | 2100 nM | – | – |
| Cc1ccc(C(=O)n2ccc3ccccc32)cc1 | > 100000 nM | < 4 | – |
| CSc1nc2ccccc2n1C(=O)c1ccccc1C(F)(F)F | > 100000 nM | < 4 | – |
| COc1cc2nc(SC)n(C(=O)c3ccc(C)cc3)c2cc1OC | 6800 nM | – | – |
| CC(C)C[C@H](NC(=O)OCc1ccccc1)C(=O)N[C@@H](CC1CCNC1=O)C(O)S(=O)(=O)O (stereo not given in full) | – | – | IC50 [2]: 1 nM; IC50 [3]: 50 nM; pIC50 [3]: 7.33; IC50 [4]: 340 nM; pIC50 [4]: 6.47 |
| CSc1nc2cc3c(cc2n1C(=O)c1ccc(C)c(F)c1)OCO3 | 70 nM | – | IC50 [5]: 320 nM; pIC50 [3]: 6.49; IC50 [4]: 2900 nM; pIC50 [4]: 5.53; EC50 (Human coronavirus 229E): 29200 nM |
| CSc1nc2ccccc2n1C(=O)Oc1ccccc1 | > 100000 nM | < 4 | – |
| Cc1ccc(C(=O)n2c(-c3ccccc3)nc3ccccc32)cc1 | > 100000 nM | < 4 | – |
| CSc1nc2ccc(C#N)cc2n1C(=O)c1ccc(C)c(F)c1 | 6300 nM | – | – |
| CSc1nc2ccccc2n1C(=O)c1ccc(C(C)(C)C)cc1 | > 100000 nM | < 4 | – |
| CSc1nc2ccccc2n1C(=O)NCc1ccc(C)cc1 | > 100000 nM | < 4 | – |
| CSc1nc2cc(F)ccc2n1C(=O)c1ccc(C)c(F)c1 | 100 nM | – | – |
| CSc1nc2ccccc2n1C(=O)C1CC1 | – | – | inhibition [6]: 61% |
| Cc1ccc(C(=O)n2c(N)nc3ccccc32)cc1 | > 100000 nM | < 4 | – |

| SMILES | IC50 ([1]; read-out: IC50) | pIC50 [1] | further results |
| --- | --- | --- | --- |
| CSc1nc2ccccc2n1C(=O)c1ccc(C)c(Cl)c1 | 150 nM | – | – |
| CSc1nc2ccccc2n1C(=O)Cc1ccccc1 | > 100000 nM | < 4 | – |
| CSc1nc2ccccc2n1C(=O)c1ccc(C)c(F)c1 | 90 nM | – | IC50 [5]: 350 nM; IC50 [2]: > 100000 nM; IC50 [3]: 340 nM; pIC50 [3]: 6.47; IC50 [7]: > 100000 nM; IC50 [4]: 1300 nM; pIC50 [4]: 5.89; EC50 (Human coronavirus 229E): 35600 nM |
| CSc1nc2ccccc2n1C(=O)c1ccccc1 | 2500 nM | – | – |
| CSc1nc2ccccc2n1S(=O)(=O)c1ccc(C)cc1 | > 100000 nM | < 4 | – |
| CSc1nc2ccccc2n1C(=O)c1ccsc1 | 2400 nM | – | – |
| CSc1nc2ccc(F)cc2n1C(=O)c1ccc(C)cc1 | 200 nM | – | – |
| CSc1nc2ccccc2n1C(=O)c1ccc(Cl)cc1 | 1100 nM | – | – |
| CSc1nc2ccccc2n1C(=O)c1ccncc1 | > 100000 nM | < 4 | – |
| CSc1nc2cc(F)ccc2n1C(=O)c1ccc(C)cc1 | 270 nM | – | – |
| CSc1nc2ccccc2n1C(=O)c1ccc(C)c(C)c1 | 1000 nM | – | – |
| Cc1ccc(C(=O)n2c(C)nc3ccccc32)cc1 | 3430 nM | – | – |
| CSc1nc2ccccc2n1C(=O)c1ccc2c(c1)OCCO2 | 1000 nM | – | – |
| CSc1nc2cc(C)c(C)cc2n1C(=O)c1ccc(C)cc1 | – | – | inhibition [6]: 68% |
| Cc1ccc(C(=O)n2nnc3ccccc32)cc1 | > 100000 nM | < 4 | – |
| Cc1ccc(C(=O)n2ncc3ccccc32)cc1 | > 100000 nM | < 4 | – |
| CSc1nc2cc(C#N)ccc2n1C(=O)c1ccc(C)c(F)c1 | 890 nM | – | – |
| CCc1nc2ccccc2n1C(=O)c1ccc(C)cc1 | 6550 nM | – | – |
| COc1cc(C(=O)n2c(SC)nc3ccccc32)ccc1C | 660 nM | – | – |
| CSc1nc2cc3c(cc2n1C(=O)c1ccc(C)c(F)c1)OCCO3 | 270 nM | – | – |

| SMILES | IC50 ([1]; read-out: IC50) | pIC50 [1] | further results |
| --- | --- | --- | --- |
| CCSc1nc2ccccc2n1C(=O)c1ccc(C)cc1 | 3760 nM | – | – |
| CSc1nc2ccccc2n1C(C)=O | > 100000 nM | < 4 | – |
| Cc1ccc(C(=O)n2c(C)nc3ccccc32)cc1F | 150 nM | – | IC50 [5]: 2600 nM; IC50 [2]: > 100000 nM; IC50 [3]: 210 nM; pIC50 [3]: 6.67; IC50 [7]: > 100000 nM; IC50 [4]: 2800 nM; pIC50 [4]: 5.56; EC50 (Human coronavirus 229E): 25400 nM |
| Cc1ccc(C(=O)n2c(C#N)nc3ccccc32)cc1 | > 100000 nM | < 4 | – |
| CSc1nc2ccc(Cl)cc2n1C(=O)c1ccc(C)cc1 | 890 nM | – | IC50 ([1]; read-out: pIC50 (converted)): 269 nM |
| COc1ccc(C(=O)n2c(SC)nc3ccccc32)cc1OC | 4000 nM | – | – |
| Cc1ccc(C(=O)n2c(CC#N)nc3ccccc32)cc1 | – | – | inhibition [6]: 68% |
| CSc1nc2ccccc2n1Cc1ccc(C)cc1 | > 100000 nM | < 4 | – |
| Cc1ccc(C(=O)n2c(Cl)nc3ccccc32)cc1 | – | – | inhibition [6]: 61% |
| CCc1ccc(C(=O)n2c(SC)nc3ccccc32)cc1 | 1800 nM | – | – |
| CSc1nc2ccccc2n1C(=O)c1ccccc1C | > 100000 nM | < 4 | – |
| CSc1nc2ccccc2n1C(=O)c1cccc(C(F)(F)F)c1 | 33700 nM | – | – |
| CSc1nc2ccccc2n1C(=O)c1ccc(C(F)(F)F)cc1 | 2720 nM | – | – |
| Cc1ccc(C(=O)n2c(C)nc3cc4c(cc32)OCCO4)cc1 | 7500 nM | – | – |
| CSc1nc2ccccc2n1C(=O)c1ccc(C)cc1 | 390 nM | – | IC50 [5]: 1900 nM; IC50 [2]: > 100000 nM; IC50 [3]: 1600 nM; pIC50 [3]: 5.81; IC50 [7]: > 100000 nM; ΔTm [8]: 4.2 °C; IC50 [4]: 5000 nM; pIC50 [4]: 5.3 |
| CSc1nc2cc(Cl)ccc2n1C(=O)c1ccc(C)cc1 | 550 nM | – | – |
| COc1nc2ccccc2n1C(=O)c1ccc(C)cc1 | > 100000 nM | < 4 | – |
| Cc1ccc(C(=O)n2c(C(F)(F)F)nc3ccccc32)cc1 | 17000 nM | – | – |
